The record followed here is PubChem BioAssay (NCI).

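All cell lines were grown in 96-well plates and treated with compound for 48 hours. GI50 marks 50% less growth. TGI denotes the concentration required for complete inhibition of growth.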

Some test systems named below: TK-10 renal; HCT-15 colon; SF-295 CNS; OVCAR-8 ovarian; HOP-62 NSCLC; KM12 colon; NCI-H460 lung; RPMI-8226 leukemia; NCI-H522 lung.
Holding throughout (test): NCI anticancer screen, dose series, 48 h

As to `Cc1nc(C(N)=O)c(N)n1CCN1CCN(C(=O)CCCCCCCCCCNC2N=CNc3nc[nH]c32)CC1` (stereo not drawn), the TGI in the assay with TK-10 renal, in the assay on HCT-15 colon, in the assay on SF-295 CNS, in the assay with OVCAR-8 ovarian, in the assay with HOP-62 NSCLC and with KM12 colon was above 100 µM in each case. This compound also showed a TGI in the assay on NCI-H460 lung above 100 µM.

Take `CN1N=CSC12C(=O)N(c1ccccc1)C(=O)N2c1ccccc1` (stereo not drawn): the TGI in the assay on TK-10 renal, in the assay on HCT-15 colon, in the assay with SF-295 CNS, with OVCAR-8 ovarian, with HOP-62 NSCLC and in the assay with RPMI-8226 leukemia was above 100 µM each time. For the same compound, the TGI in the assay with KM12 colon and with NCI-H460 lung was above 100 µM each time.

For the compound `O=C1C2C3C=C4c5ccccc5N(c5ccccc5)C4(C2C(=O)N1c1ccccc1)C1C(=O)N(c2ccccc2)C(=O)C31` (stereo not drawn), the TGI in the assay with TK-10 renal, with HCT-15 colon, in the assay with SF-295 CNS, with OVCAR-8 ovarian, with HOP-62 NSCLC and with KM12 colon was above 100 µM each time. The compound also registered a TGI with NCI-H460 lung above 100 µM.

In the case of `CN(C(=O)/C=C/c1ccccc1)C1C2CN3CCC(O2)C13` (stereo not drawn), the TGI with TK-10 renal, in the assay on HCT-15 colon, in the assay with SF-295 CNS, with OVCAR-8 ovarian, with HOP-62 NSCLC and with KM12 colon was above 100 µM in each case. Further, the TGI with NCI-H460 lung and with NCI-H522 lung was above 100 µM in each case.

Consider `O=C1C[C@H]2CCCN2[C@@H](c2ccccc2)C1`, for which the TGI with TK-10 renal, in the assay on HCT-15 colon, in the assay on SF-295 CNS, in the assay on OVCAR-8 ovarian, with HOP-62 NSCLC and with RPMI-8226 leukemia was above 100 µM each time. The TGI with KM12 colon, in the assay on NCI-H460 lung and in the assay on NCI-H522 lung was above 100 µM in each case.

For the compound `CCc1cccc(C)c1NS(=O)(=O)c1ccccc1`, the TGI in the assay on TK-10 renal, in the assay with HCT-15 colon, in the assay with SF-295 CNS, in the assay with OVCAR-8 ovarian, in the assay with HOP-62 NSCLC and in the assay on RPMI-8226 leukemia was above 100 µM throughout. The TGI in the assay on KM12 colon and in the assay with NCI-H460 lung was above 100 µM in each case.

Turning to `C[C@@]1(O)C2CC3CC1(c1ccccc1)CC(/C3=N/O)/C2=N\O` (stereo partly drawn), the TGI in the assay on HCT-15 colon, in the assay with SF-295 CNS, in the assay on OVCAR-8 ovarian, in the assay with HOP-62 NSCLC, in the assay with KM12 colon and with NCI-H460 lung was above 100 µM throughout. Moreover, in the assay with NCI-H522 lung, the TGI is above 100 µM.

On to `O=c1cc(-c2cccs2)[nH]c2cc3c(cc12)OCO3`, for which the TGI with TK-10 renal was above 100 µM; with HCT-15 colon it was above 100 µM; in the assay with SF-295 CNS it was above 49 µM; in the assay with OVCAR-8 ovarian, 27.7 µM; in the assay on HOP-62 NSCLC it was 39.4 µM; in the assay with RPMI-8226 leukemia, above 100 µM. Moreover, the TGI in the assay with KM12 colon was above 100 µM; in the assay with NCI-H460 lung, above 39.1 µM; in the assay with NCI-H522 lung, 6.92 µM.

In the case of `O=c1ncccn1[C@@H]1O[C@H](CO)[C@H](O)C1O` (stereo partly drawn), the TGI in the assay with TK-10 renal, in the assay on HCT-15 colon, in the assay on SF-295 CNS, with OVCAR-8 ovarian, in the assay with HOP-62 NSCLC and in the assay on RPMI-8226 leukemia was above 100 µM each time. For the same compound, the TGI in the assay with KM12 colon, with NCI-H460 lung and with NCI-H522 lung was above 100 µM throughout.

As for `Nc1ncnc2c1ncn2C1OC(CSCC(F)(F)F)C(O)C1O` (stereo not drawn), the TGI with TK-10 renal, with HCT-15 colon, in the assay with SF-295 CNS, in the assay with OVCAR-8 ovarian, with HOP-62 NSCLC and in the assay on RPMI-8226 leukemia was above 100 µM throughout. Further, the TGI in the assay on KM12 colon, with NCI-H460 lung and in the assay with NCI-H522 lung was above 100 µM each time.

`c1cc[c]([Sn][c]2ccccc2)cc1`: the GI50 is 20.1 µM in the assay with TK-10 renal; 20.5 µM in the assay with HCT-15 colon; 27.8 µM in the assay on SF-295 CNS; 24 µM in the assay with OVCAR-8 ovarian; 53.1 µM in the assay with HOP-62 NSCLC; 19.8 µM in the assay on RPMI-8226 leukemia. The GI50 is 13.6 µM in the assay with KM12 colon, 14 µM with NCI-H460 lung and 14.1 µM with NCI-H522 lung. Further, the TGI is 51.2 µM with TK-10 renal; 41 µM in the assay on HCT-15 colon; 69.7 µM in the assay with SF-295 CNS; 58.8 µM with OVCAR-8 ovarian; above 100 µM in the assay on HOP-62 NSCLC; 49.2 µM in the assay with RPMI-8226 leukemia. For the same compound, the TGI is 19.2 µM in the assay on KM12 colon, 20.2 µM in the assay with NCI-H460 lung and 32.7 µM in the assay on NCI-H522 lung.

As to `Cc1cc2c(C)nn(Cc3ccccc3)c2c(C(=O)O)c1C`, the TGI in the assay on TK-10 renal, in the assay with HCT-15 colon, with SF-295 CNS, in the assay on OVCAR-8 ovarian, in the assay with HOP-62 NSCLC and in the assay with RPMI-8226 leukemia was above 100 µM in each case.

On to `CC(=O)OCc1c2ccccc2c(C)c2c1cc(F)c1ccccc12`, for which the TGI in the assay on TK-10 renal was above 100 µM; with SF-295 CNS, above 100 µM; in the assay with OVCAR-8 ovarian it was 47.4 µM; in the assay on HOP-62 NSCLC, above 100 µM; with KM12 colon, above 100 µM; in the assay on NCI-H522 lung, 25.6 µM.

As for `CC12CCC(CC(=O)/C1=C(/Br)I)C2(C)C` (stereo not drawn), the TGI in the assay on TK-10 renal stood at 32.9 µM; in the assay with HCT-15 colon it was 31.2 µM; in the assay with SF-295 CNS, 3.03 µM; in the assay with OVCAR-8 ovarian, 34.3 µM; in the assay with HOP-62 NSCLC, 32.1 µM; in the assay on RPMI-8226 leukemia, 26.4 µM. Further, the TGI in the assay with KM12 colon was 32 µM; in the assay on NCI-H460 lung it was above 100 µM.

In the case of `O=C(O)CCNS(=O)(=O)c1ccc(NC(=O)c2ccccc2)cc1`, the TGI in the assay with TK-10 renal, with HCT-15 colon, in the assay on SF-295 CNS, in the assay with OVCAR-8 ovarian, in the assay with RPMI-8226 leukemia and with KM12 colon was above 100 µM in each case. The TGI with NCI-H460 lung and in the assay with NCI-H522 lung was above 100 µM in each case.

For the compound `CCOC(=O)Cc1nc2ccc3c(c2[nH]c1=O)C(=O)c1ccccc1C3=O`, the TGI with TK-10 renal, in the assay with HCT-15 colon, in the assay with OVCAR-8 ovarian, in the assay with HOP-62 NSCLC, in the assay with RPMI-8226 leukemia and with KM12 colon was above 100 µM throughout. Also, the TGI in the assay on NCI-H460 lung and in the assay with NCI-H522 lung was above 100 µM each time.

In the case of `COC(=O)C1=CO[C@@H](OC2CC(CO)C(O)C(O)C2O)[C@@H]2[C@@H](C)[C@@H](OC(=O)/C=C/c3ccccc3)[C@@H](O)[C@H]12` (stereo partly drawn) (tested in a mixture with another compound), the TGI in the assay on TK-10 renal, with SF-295 CNS, in the assay with OVCAR-8 ovarian, in the assay with HOP-62 NSCLC, in the assay with RPMI-8226 leukemia and with KM12 colon was above 100 µM in each case. In the assay on NCI-H522 lung, this compound registered a TGI above 100 µM.

As to `CCc1c(C#N)c(=O)[nH]c(=O)n1CCN1CCN(C(=O)NCCCCCCNC(=O)N2CCN(CCn3c(CC)c(C#N)c(=O)[nH]c3=O)CC2)CC1`, the TGI with TK-10 renal, in the assay on HCT-15 colon, with SF-295 CNS, in the assay on OVCAR-8 ovarian, in the assay with HOP-62 NSCLC and with RPMI-8226 leukemia was above 100 µM in each case. In the assay with NCI-H460 lung, this compound showed a TGI above 100 µM.

Regarding `C/C=C/C(C#N)O[Si](C)(C)C` (stereo not drawn), the TGI in the assay with TK-10 renal, in the assay with HCT-15 colon, in the assay with SF-295 CNS, with OVCAR-8 ovarian, with HOP-62 NSCLC and in the assay with KM12 colon was above 100 µM in each case. The TGI with NCI-H460 lung and in the assay on NCI-H522 lung was above 100 µM each time.

`COC(=O)c1sc(C(=O)OC)c2c1CS(=O)C2`: the TGI with TK-10 renal, with HCT-15 colon, with SF-295 CNS, with OVCAR-8 ovarian, in the assay on RPMI-8226 leukemia and with KM12 colon was above 100 µM in each case. For the same compound, in the assay with NCI-H522 lung, the TGI was above 100 µM.

Take `COC1=NCc2ccccc2-c2ccccc21`: the TGI with TK-10 renal, in the assay on HCT-15 colon, in the assay on SF-295 CNS, in the assay on OVCAR-8 ovarian, with KM12 colon and with NCI-H460 lung was above 100 µM in each case. This compound also came in with a TGI in the assay on NCI-H522 lung above 100 µM.

`COC(=O)/C(=N\NC(C)(C)C)C(C(=O)OC)C(=O)C(=O)Nc1cc(Cl)ccc1Cl` (stereo not drawn): the TGI in the assay on TK-10 renal, in the assay on HCT-15 colon, in the assay with SF-295 CNS, in the assay on OVCAR-8 ovarian, in the assay with HOP-62 NSCLC and in the assay on KM12 colon was above 100 µM each time. For the same compound, the TGI in the assay on NCI-H460 lung and in the assay with NCI-H522 lung was above 100 µM in each case.

Consider `COc1cccc(-c2nc3cc(NC(=O)c4ccc(Cl)c(C#N)c4)ccc3o2)c1`, for which the GI50 in the assay on TK-10 renal is 3.39 µM; in the assay with HCT-15 colon, above 100 µM; in the assay with SF-295 CNS it was 11.7 µM; with HOP-62 NSCLC, 12.9 µM; with KM12 colon, 1.95 µM; with NCI-H460 lung, 2.12 µM. In addition, in the assay with NCI-H522 lung, the GI50 is 1.68 µM. Moreover, the TGI in the assay on TK-10 renal is 9 µM; with HCT-15 colon, above 100 µM; with SF-295 CNS, above 100 µM; in the assay on HOP-62 NSCLC, above 100 µM; in the assay on KM12 colon, 4.48 µM; in the assay with NCI-H460 lung, 4.91 µM. Also, the TGI with NCI-H522 lung amounted to 4.54 µM.
